Target: T1, AxlA (Aspergillus niger, UniProt A2QTU5)
T1 sequence (A2QTU5 19-736): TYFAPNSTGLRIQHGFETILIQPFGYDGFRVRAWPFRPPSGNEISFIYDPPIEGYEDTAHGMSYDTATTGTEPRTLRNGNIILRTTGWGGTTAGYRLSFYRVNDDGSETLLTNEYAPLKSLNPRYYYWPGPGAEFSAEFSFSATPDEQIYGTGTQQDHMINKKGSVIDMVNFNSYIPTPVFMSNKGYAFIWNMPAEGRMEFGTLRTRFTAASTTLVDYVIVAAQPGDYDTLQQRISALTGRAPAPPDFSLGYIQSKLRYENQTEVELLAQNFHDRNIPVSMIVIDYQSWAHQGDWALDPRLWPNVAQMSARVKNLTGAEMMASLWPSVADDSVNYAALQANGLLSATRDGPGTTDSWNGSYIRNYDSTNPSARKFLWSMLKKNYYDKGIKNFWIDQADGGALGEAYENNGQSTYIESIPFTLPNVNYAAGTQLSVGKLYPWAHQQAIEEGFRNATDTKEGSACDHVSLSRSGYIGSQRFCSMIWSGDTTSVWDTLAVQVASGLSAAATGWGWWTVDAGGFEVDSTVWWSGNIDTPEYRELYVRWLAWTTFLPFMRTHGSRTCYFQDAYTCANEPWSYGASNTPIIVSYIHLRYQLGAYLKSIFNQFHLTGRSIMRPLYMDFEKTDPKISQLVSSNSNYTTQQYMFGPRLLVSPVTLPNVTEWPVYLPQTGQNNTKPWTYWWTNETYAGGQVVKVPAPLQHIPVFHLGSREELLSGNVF
Test: pNPαX hydrolysis competition, nonlinear curve fitting
Format: biochemical
Conditions: substrate p-nitrophenyl-α-xyloside 0-20 mM; reaction product

Ki: 13.7 mM
Structure (SMILES): OC1OC[C@@H](O)[C@H](O)[C@H]1O (stereo partly shown) [Xyl]
